Assay results reported in patent publication US4078083A, “Novel prostanoic acids” (Hoechst Aktiengesellschaft, priority 1973, dated 1978).
≈ marks a conversion by molar mass, not a printed value.

Experiments:
[1] = tested on: bronchospasm by histamine (Guinea pig); assay: Bronchospasmolytic activity according to Konzett-Rossler, histamine bronchospasm; format: in vivo; conditions: for ED50: Cavia porcellus, iv, Guinea pig, irritant histamine, read-out: Bronchospasmolysis ID50, Histamine
Description: (§1) test of intravenously administered preparations for bronchospasmolytic activity according to Konzett-Rossler.
(§2) Except for irrelevant modifications, the test arrangement used largely corresponded to the description given by H. Konzett and R. Rossler, Arch. exp. Path. Pharmakol. 195, 71 (1940)). Test animals were male white Guinea pigs having a weight of 400 to 500 g. They were anesthesized with hexobarbital and urethane. All preparations to be administered were diluted with phosphate buffer (pH = 7.4) and administered in a volume of 0.1 ml.
(§3) Physiological or pharmacological effects were registered by measuring the air volume in the lung when the maximum blowing pressure was kept constant and a constant volume was maintained by respiration above atmospheric pressure. Capacity modifications in the respiratory tract show themselves in an increase or decrease of the air volume absorbed by the lung under the given constant blowing pressure. To produce a heavy bronchospasm acetylquoline or histamine were injected by the intravenous route. The dosage unit of the irritant was chosen such that an about 70 to 80 % decrease of the absorption capacity of the lung was obtained. The substance to be examined was administered by the intravenous route in the V. jugularis. 30 seconds thereafter the already evaluated dosage unit of the irritant was injected once more. The medium inhibition dose was red off from the dose activity curve drawn either graphically or by means of regression analysis.

[2] = tested on: unstriped musculature (isolated rat stomach); assay: Effect on the unstriped musculature (isolated rat stomach according to Vane); format: cell-based, rat (Wistar); conditions: for EC50: 37° C, activity relative to contraction after 600 ng/ml PGA2, Table 1, read-out: Action on the unstriped musculature (isolated rat stomach) ED50
Description: Effect on the unstriped musculature (isolated rat stomach according to Vane, Br. J. Pharmac. Chemother., 12 344 (1957)).
The test was carried out on Wistar rats of both sexes having a weight of 200 to 220 g. The animals were killed by a blow onto the neck, the stomach was rapidly taken out and put into a Petri dish containing a pre-heated cancer solution. The fundus which is easily to be distinguished from the pyloric part because of its grey color, was separated and opened longitudinally by a longitudinal cut. Transversal cuts in counter-direction to each other led to a stripe which could be hung into the organ bath. The organ bath contained the usual cancer solution which was maintained at a temperature of 37° C and which was risen in bubbles with a mixture of 95 % O2 and 5 % CO2. A writing lever charged with 1 g served to register on a kymograph the contractions produced by adding the substance to be examined to the organ bath. The test criterion was the contraction occurring after the addition of the substance to be examined. The degree of activity was determined by comparing the contraction occurring after 600 ng/ml PGA2. The values expressed in % with regard to the comparison preparation were used to draw a dose-activity-curve which allowed to determine the medium activity dose.
All substances were present as stock-solutions in absolute alcohol and were diluted to their final concentration with phosphate buffer (pH = 7.4).

blood pressure (cat) = assay: Test for the effect on the blood circulation (hypotensive properties, Kannegiesser and Lee); format: in vivo
Description: Test for the effect on the blood circulation
The hypotensive properties were examined in accordance with the methods described by Kannegiesser and Lee, Nature 229, 498 (1971).
Test animals were cats of both sexes having a weight of 2.0 to 3.0 kg.
The animals were anesthesized with pentobarbital in an amount of 1.7 to 2.8 mg/ml in 0.9 % NaCl-solution as continuous infusion with 5 mg/kg/hour and pretreated with pentolinium (Ansolysen, May & Baker) with 10 mg/animal by the intraperitoneal route. The test substances were administered through the Vena jugularis. The blood pressure was measured in the A. carotis ext. directly and recorded by means of a Statham pressure sensor on a multi-channel recorder.
The maximum change of the systolic and diastolic blood pressure was measured in mm Hg.
All test preparations were present as stock solutions in absolute alcohol and were diluted to the end concentration immediately before the test beginning in phosphate buffer (pH = 7.4).

[3] = tested on: bronchospasm by acetylquoline (Guinea pig); assay: Bronchospasmolytic activity according to Konzett-Rossler, acetylquoline bronchospasm; format: in vivo; conditions: Cavia porcellus, iv, irritant acetylquoline, read-out: Bronchospasmolysis ID50, acetylquoline
Description: as §1, §2, §3

| EC50 ([2]; isolated rat stomach) [µg/mL] | Compound | ED50 [1] [µg/kg] | Blood pressure (modifications in mm Hg), first value (systolic) (blood pressure (cat); after 5 μ/kg i.v. (cat)) [mm Hg] | Blood pressure (modifications in mm Hg), second value (diastolic) (blood pressure (cat); after 5 μ/kg i.v. (cat)) [mm Hg] | ED50 [3] [µg/kg] | Blood pressure (modifications in mm Hg), one value printed (systolic and diastolic not separated) (blood pressure (cat); after 5 μ/kg i.v. (cat)) [mm Hg] | Blood pressure (modifications in mm Hg), first value (systolic) (blood pressure (cat); at 0.5 μg/kg i.v. (cat)) [mm Hg] | Blood pressure (modifications in mm Hg), second value (diastolic) (blood pressure (cat); at 0.5 μg/kg i.v. (cat)) [mm Hg] | bronchodilating activity ([1]; in words, irritant not specified) | spasmogen activity ([2]; in words) | blood-pressure lowering activity (blood pressure (cat); in words, compared with 15-α-hydroxy-9-oxo-13-trans-prostenoic acid) | ED50 in the isolated rat stomach ([2]; isolated rat stomach) [µg/mL] |
| --- | --- | --- | --- | --- | --- | --- | --- | --- | --- | --- | --- | --- |
| 0.5 | CCCCCC(O)/C=C/C1CCC(=O)C1CCCC(C)CCC(=O)O (mixture of isomers) [Example 6, rac. 15-α-Hydroxy-4-methyl-9-oxo-13-trans-prostenoic Acid] | 0.9 | -45 | -50 | 0.5 |  |  |  |  |  |  |  |
| 1.3 | CCCCCC(O)/C=C/C1CCC(=O)C1CCCCCC(C)C(=O)O (mixture of isomers) [Example 8, rac. 15-α-Hydroxy-2-methyl-9-oxo-13-trans-prostenoic Acid] |  |  |  | > 10 | 0 |  |  |  |  |  |  |
| 1 | CCCCCC(O)/C=C/C1CCC(=O)C1CCCCC(C)CC(=O)O (mixture of isomers) [Example 7, rac. 15-α-Hydroxy-3-methyl-9-oxo-13-trans-prostenoic Acid] | 4 | -10 | -20 | 1 |  |  |  |  |  |  |  |

Further lines, the compound ahead of its results:

| Compound | EC50 ([2]; isolated rat stomach) [µg/mL] | ED50 [1] [µg/kg] | Blood pressure (modifications in mm Hg), first value (systolic) (blood pressure (cat); after 5 μ/kg i.v. (cat)) [mm Hg] | Blood pressure (modifications in mm Hg), second value (diastolic) (blood pressure (cat); after 5 μ/kg i.v. (cat)) [mm Hg] | ED50 [3] [µg/kg] | Blood pressure (modifications in mm Hg), one value printed (systolic and diastolic not separated) (blood pressure (cat); after 5 μ/kg i.v. (cat)) [mm Hg] | Blood pressure (modifications in mm Hg), first value (systolic) (blood pressure (cat); at 0.5 μg/kg i.v. (cat)) [mm Hg] | Blood pressure (modifications in mm Hg), second value (diastolic) (blood pressure (cat); at 0.5 μg/kg i.v. (cat)) [mm Hg] | bronchodilating activity ([1]; in words, irritant not specified) | spasmogen activity ([2]; in words) | blood-pressure lowering activity (blood pressure (cat); in words, compared with 15-α-hydroxy-9-oxo-13-trans-prostenoic acid) | ED50 in the isolated rat stomach ([2]; isolated rat stomach) [µg/mL] |
| --- | --- | --- | --- | --- | --- | --- | --- | --- | --- | --- | --- | --- |
| CCCCCC(O)/C=C/C1CCC(=O)C1CCCCCCC(=O)O (mixture of isomers) [Example 4, rac. 15-α-Hydroxy-9-oxo-13-trans-prostenoic Acid] | 0.1 | 0.1 |  |  | 0.1 |  | -22 | -27 |  |  |  |  |
| CCCCCC(O)/C=C/C1CCC(=O)C1CCC(C)CCCC(=O)O (mixture of isomers) [Example 5, rac. 15-α-Hydroxy-5-methyl-9-oxo-13-trans-prostenoic Acid] | 0.2 |  | -20 | -30 | 0.4 |  |  |  | good bronchodilating activity | good spasmogen activity | reduced as compared with 15-α-hydroxy-9-oxo-13-trans-prostenoic acid |  |
| CCCCCC(O)C=C[C@H]1CCC(O)[C@@H]1CC=CCOCC(=O)O (mixture of isomers) [Example 29 A, rac. 9,15-dihydroxy-3-oxa-5,13-trans-prostadienic acid] |  |  |  |  |  |  |  |  |  |  |  | 3.1 (≈ 9.11 µM) |
